Drawing on a melting point compilation (Tetko et al.), this text covers melting point for 113 compounds.

Turning to `CC(C)(C)OC(=O)N1CCN(CCC(=O)O)CC1`, the melting point lay within 138 to 139 °C. To `CC(C)OC(=O)N=NC(=O)OC(C)C` belongs 3 to 5 °C; to `COc1ccc(CNc2ccc([N+](=O)[O-])c3nonc23)cc1`, 176 to 180 °C; to `Cc1cc(CC(C)CC(C)(C)C)n(O)c(=O)c1` (stereo not drawn), 108 °C.

For `COC(=O)c1c(C)n[nH]c1C`, the melting point was 83 °C. Regarding `Cc1ccccc1NC(=O)C(C)(C)C`, the melting point is 111 to 115 °C. To `C=CC(=O)NC(C)(C)CS(=O)(=O)O` belongs 195 °C; to `COC1=C(C(C)(C)C(C)C)C(=O)C(=O)c2ccccc21`, 93.3 to 93.6 °C; to `CCCCCCCCCCCC(=O)OOC(=O)CCCCCCCCCCC`, 53 to 57 °C.

With `Cc1ccc(S(C)(=O)=O)cc1`, the melting point stood at 88 °C. To `O=c1[nH]c2scc(-c3ccccc3)c2c(=O)n1-c1cccc(Cl)c1` belongs 269 to 270 °C; to `c1ccc2c(c1)ccc1ccc3ccc4ccc5cccnc5c4c3c12`, 270 °C. To `Fc1c(F)c(-c2c(F)c(F)c(Br)c(F)c2F)c(F)c(F)c1Br` belongs 113 to 115 °C. Compound `COc1ccc(-c2ccc(S(=O)(=O)NC(CCSC)C(=O)O)cc2)cc1` (stereo not drawn) showed a melting point of 174 °C. On to `CCOC(=O)C(C#N)=C(SC)SC`, for which the melting point came to 70 °C. `O=Cc1ccccc1OC1OC(CO)C(O)C(O)C1O` (stereo not drawn) returned a melting point of 178 °C. `FC(F)(F)C(Cl)(Cl)C(F)(F)Cl` displayed a melting point of -4.3 °C. To `C#CCN1C(=O)COc2cc(F)c(N3C(=O)C4=C(CCCC4)C3=O)cc21` belongs 203 °C; to `COc1ccc(Cl)cc1C#N`, 100 °C; to `NC(=S)C1CCN(C(=O)OCc2ccccc2)CC1`, 128 to 130 °C.

In turn, `Cc1ccccc1NC(=O)c1cnc(C(C)(C)C)c(Cl)n1` had a melting point of 115 °C. In turn, `O=C(C=Cc1ccco1)C=Cc1ccco1` gave a melting point of 60.5 °C. To `CC(=O)Nc1ccc(O)cc1` belongs 169 °C; to `COC(=O)C(C)Oc1ccc(Oc2ncc(C(F)(F)F)cc2Cl)cc1` (stereo not drawn), 56 °C.

`OC1(Cc2ccccc2)CCNCC1` returned a melting point of 80 to 85 °C. To `Cc1nc2cc([N+](=O)[O-])ccc2[nH]1` belongs 224 °C; to `Cc1cc(I)c(C)c(C)c1C`, 31 °C.

Compound `CC(=O)CC(=O)c1c(C)c(C)c(C)c(C)c1C` yielded a melting point of 73.8 to 75.1 °C. To `Cc1cc(O)c(C)c(O)c1` belongs 161 to 164 °C. `CC(=O)NC1C(OCc2ccccc2)OC2COC(c3ccccc3)OC2C1OC(C)C(=O)O` (stereo not drawn) had a melting point of 220 to 222 °C. To `Cc1cccc(C)c1C(=O)O` belongs 116 °C. For the compound `CC(=O)Oc1cccc([N+](=O)[O-])c1`, the melting point was found to be 54 °C. Turning to `CC(=O)C1(O)C(C)CC2C3CC=C4CC(O)CCC4(C)C3CCC21C` (stereo not drawn), the melting point fell in the range of 224 to 230 °C. Consider `O=C(Oc1c(F)c(F)c(F)c(F)c1F)c1ccc(-c2cccs2)nc1`, for which the melting point lay within 140 to 142 °C. To `FC(F)(F)CCCl` belongs -106 °C; to `CCOC(=O)NC(=S)Nc1ncccc1C`, 124 to 126 °C; to `COC(=O)c1cc(S(=O)(=O)Cl)oc1C`, 35 to 38 °C. Compound `CCC(C)Cn1c(O)nnc1S` (stereo not drawn) displayed a melting point of 147 to 151 °C.

Turning to `N#Cc1cc2[nH]c(=O)c(=O)[nH]c2cc1[N+](=O)[O-]`, the melting point stood at 300 °C.

With `O=Cc1ccc(-c2ccccc2OC(F)(F)F)o1`, the melting point lay within 72 to 74 °C.

`O=C(O)c1cc(Cl)ccc1C(F)(F)F` registered a melting point of 86 °C. In the case of `COc1ccc(OC)c(C(=O)CBr)c1`, the melting point lay in the range of 83 to 88 °C. `Cn1ncc(C=O)c1N` registered a melting point of 161 to 163 °C. To `CCCc1ccc(-c2ccc(C(=O)O)cc2)cc1` belongs 226 °C; to `CC(C)C(=O)OCC(C)(C)C(O)C(C)C` (stereo not drawn), -50 °C; to `CC1(CC(=O)O)OCCc2sccc21` (stereo not drawn), 92.5 to 93.5 °C. To `COC(=O)NN=Cc1c[n+]([O-])c2ccccc2[n+]1[O-]` belongs 239 °C. To `CC1(C)CC(=O)C(=NNc2ccccc2[N+](=O)[O-])C(=O)C1` belongs 139 to 140 °C. Compound `CCOP(=O)(N=C1SCCS1)OCC` gave a melting point of 41 °C. Consider `O=[N+]([O-])c1cc(C(F)(F)F)ccc1N1CCOCC1`, for which the melting point fell in the range of 34 to 36 °C.

In turn, `NC(=O)NC(=O)Cc1ccccc1` yielded a melting point of 215 °C. To `Brc1ccc2c(c1)Oc1ccccc1O2` belongs 90 °C; to `Nc1ccc(Oc2ccc(Cl)cc2)cc1`, 102 °C; to `FC(F)(F)c1ccc(N2CCOCC2)c(Br)c1`, 50 to 52 °C. As for `COC(=O)C1(C)CCC(C(=O)O)C1(C)C` (stereo not drawn), the melting point was 74 to 78 °C. To `NC(=NO)c1ccc(F)cc1` belongs 92 to 95 °C; to `NC(=S)c1ccc2nonc2c1`, 132 to 135 °C; to `CCN(CC)C(C)CN1c2ccccc2Sc2ccccc21` (stereo not drawn), 53 °C.

`CC(=O)c1csc(-c2ccc(OC(F)(F)F)cc2)n1` displayed a melting point of 45.5 to 48 °C. To `Clc1cc2oc3c(Cl)c(Cl)c(Cl)cc3c2cc1Cl` belongs 196 °C; to `COC(=O)c1ccccc1[N+](=O)[O-]`, -13 °C. To `COc1ccc(/C=C/C=O)cc1` belongs 55 to 60 °C. To `CCC(Oc1ccccc1)C(=O)O` (stereo not drawn) belongs 81 °C; to `N#Cc1c(C(F)(F)F)cc(-c2cccs2)[nH]c1=O`, 293 to 295 °C. As to `Cc1c(C)c(C)c(CO)c(C)c1C`, the melting point was 159 to 163 °C.

In the case of `Cc1ccc2sccc2c1`, the melting point lay within 35 to 36 °C. To `O=C(O)C1C(c2ccccc2)C(C(=O)O)C1c1ccccc1` (stereo not drawn) belongs 228 °C; to `COC(=O)C1(O)c2ccccc2-c2ccc(Cl)cc21` (stereo not drawn), 155 °C; to `COc1ccc(C(=O)c2ccccc2Cl)cc1OC`, 125 to 126 °C. In turn, `Cc1nc(C)c(CO)s1` showed a melting point of 56 to 57 °C. To `O=C(O)[C@@H]1CCCC[C@H]1C(=O)O` (relative stereo) belongs 220 °C. To `COc1ccccc1N1CCN(CCCNc2cc(=O)n(C)c(=O)n2C)CC1` belongs 156 °C; to `CC(=O)Nc1ccc(Br)c(Cl)c1`, 125 to 128 °C. The compound `OCc1ccc(-n2ccnc2)cc1` returned a melting point of 87 to 89 °C. To `O=[N+]([O-])c1cc(-c2ccccc2)ccc1O` belongs 67 °C; to `N#Cc1conc1N`, 140 °C. For `Nc1c(Br)cc(Br)c(F)c1C(=O)O`, the melting point lay within 235 to 238 °C. To `CCSCC[C@@H](N)C(=O)O` belongs 278 °C; to `N#C/C(=C/c1ccc(Cl)cc1Cl)c1nc2ccccc2c(=O)[nH]1`, 298 to 300 °C; to `COC(=O)c1nc[nH]c1C(=O)OC`, 197 to 201 °C. To `COc1cc(C2c3cc4c(cc3C(O)C3COC(=O)C23)OCO4)cc(OC)c1OC` (stereo not drawn) belongs 228 °C.

`CC(=O)Oc1c(C)cc(OCC(O)CNC(C)C)c(C)c1C` (stereo not drawn) had a melting point of 106 °C.

`CCOC(=O)c1cc(-c2ccccc2)n(-c2ccccc2)c1C` returned a melting point of 97 °C. To `CN1CCN(c2ccc(C=O)cc2)CC1` belongs 57 to 60 °C; to `C/C(Cc1ccccc1)=N\NC(N)=O`, 189 °C; to `COC(=O)c1cc2occc2n1C`, 81 to 82 °C. To `COC(=O)c1ccc(C=CC(=O)c2ccccc2)cc1` belongs 119 to 120 °C; to `CCCCC(O)C(C)C` (stereo not drawn), -85 °C. To `Cc1ccc(S(=O)(=O)Nc2ccc(Cl)cc2)cc1` belongs 120 °C. `CC(=NC#N)N(C)Cc1ccc(Cl)nc1` returned a melting point of 98.9 °C. To `CCCCCCC(=O)OCCC` belongs -63.5 °C; to `CSc1sc(C(=O)O)c(-c2cccc(Cl)c2)c1C#N`, 209 to 211 °C; to `Oc1ccc(Oc2ccc(O)cc2)cc1`, 163 to 168 °C. In turn, `Cc1ccc([N+](=O)[O-])cc1S(=O)(=O)Cl` registered a melting point of 44 °C.

Regarding `Clc1cc(Cl)c2c(c1)oc1cc(Cl)cc(Cl)c12`, the melting point was found to be 207 °C. To `CC(=O)OC1CCCc2c(C)ccc(C)c21` (stereo not drawn) belongs 52 °C; to `O=S(=O)(c1ccc(N=C=S)cc1)c1ccc(N=C=S)cc1`, 187 to 189 °C.

`COC1OC(C(=O)O)C(OC2OC(C(=O)O)C(OC)C(O)C2O)C(O)C1O` (stereo not drawn): the melting point came out at 300 °C. To `c1ccc2c(c1)Nc1ccccc1O2` belongs 156 °C. Regarding `CC1=CCCC1`, the melting point was -126 °C. `O=C(OCc1ccccc1)N1CCC(CBr)CC1`: the melting point came to 68 °C. To `NC(=O)c1cnccc1/C=C/c1ccccc1` belongs 200 °C; to `O=C(O)Cn1cc(Cl)c(=O)c(Cl)c1`, 259 to 263 °C; to `CC(=O)N1C(=O)c2ccccc2C1=O`, 137 °C. To `FC(F)(F)c1ccc(N=C=S)cc1` belongs 41 to 43 °C. To `O=C(CCCl)c1ccc(F)cc1` belongs 47.5 °C; to `CC(C)[C@@H](N)C(=O)O`, 302 to 303 °C; to `O=S(=O)(Cl)Cc1ccc(Cl)cc1`, 95 °C.

For `O=S(=O)(Cl)c1ccc2c(c1)OCO2`, the melting point was in the range of 48 to 51 °C.

For the compound `O=[N+]([O-])/C=C/c1cccc(/C=C/[N+](=O)[O-])c1`, the melting point lay in the range of 203 to 204 °C. The compound `CC1=CCC(C(C)(C)O)CC1` (stereo not drawn) yielded a melting point of 40.5 °C. To `N#Cc1ccncc1Br` belongs 93 °C; to `Cn1cnc(C(=O)O)c1`, 245 °C.
